{"source": "paper PMC5750218", "about": "“Protein-inspired antibiotics active against vancomycin- and daptomycin-resistant bacteria” (Nature Communications, 2018)", "key": {"[1]": {"assay": "In vivo pharmacokinetics in mice", "conditions": "mouse; for concentration at […]: 0.250 h; for concentration at 0.5 h: 0.500 h; for MRT inf: read-out: MRT0-inf; for MRT last: read-out: MRT0-last", "experimental": "Performed by WuXi AppTec (Shanghai) Co., Ltd. Seven to 9-week-old male CD1 mice (SLAC Laboratory Animal Co. Ltd., Shanghai, China) weighing 25–35 g were acclimated for approximate 3 days before being used in the study. Animals are group housed during acclimation and in-life study in compliance with the National Research Council 'Guide for the Care and Use of Laboratory Animals.' The animal room environment is controlled (target conditions: temperature 18 to 26 °C, relative humidity 30–70%, 12 h artificial light and 12 h dark) with temperature and relative humidity monitored daily. Animals were deprived of food for approximately 16 h before formulation administration then allowed access to Certified Rodent Diet (Catalogue # M-01F, Shanghai SLAC Laboratory Animal Co. Ltd.) ad libitum 4 h post dosing. Water was autoclaved before being provided to the animals ad libitum. Formulations of compounds were prepared on the morning of the dosing day. The formulation for the IV group was filtered with filter of 0.22 μm before being dosed to animals. After dose formulation preparation, duplicate 50 μL aliquots were removed from each dose formulation for use in dose validation. For each compound studied, three mice were dosed intravenously (IV) administered to each animal via tail vein per facility SOPs using test article formulated in deionised water at 1 mg mL^−1 with a dose volume of 2 mg mL^−1, providing a dose of 2 mg mL^−1 (based on free base concentration). An additional three mice were dosed subcutaneously (SC) administered to each animal via subcutaneous bolus on each animals’ back per facility SOPs using test article formulated in deionised water at 2 mg mL^−1 with a dose volume of 5 mg mL^−1, providing a dose of 10 mg mL^−1. All animals were killed at the last study time point (100% CO2 was introduced into the animal box).\nPlasma samples were collected as the following target times after each dose administration: IV Sampling Time points (hours post dosing): 0, 0.083, 0.25, 0.5, 1, 2, 4, 8 and 24. SC Sampling Time points (hours post dosing): 0, 0.25, 0.5, 1, 2, 4, 8 and 24. Approximately 30 μL blood was obtained via submandibular or saphenous vein for the first several time points. For the last time point, samples were collected via cardiac puncture while the mouse was under anaesthesia. All blood samples were transferred into pre-chilled plastic microcentrifuge tubes containing 2 μL of ethylenediaminetetraacetic acid dipotassium salt (K2-EDTA) (0.5 M) as anticoagulant and placed on wet ice until centrifugation. Harvested blood samples were centrifuged within 30 min of collection at 7000 rpm (8546 × g) 4 °C for about 10 min. After centrifugation, plasma was transferred into another pre-labelled and pre-chilled polypropylene microcentrifuge tubes, then quick-frozen over dry ice and stored at −70 ± 10 °C until LC/MSMS analysis.\nLC-MS/MS methods for the quantitative determination of the test article in mouse plasma were developed with an internal standard. Benchtop stability of the compound in mouse plasma was determined at mid QC concentrations in triplicate at 0, 2 h at room temperature. The stability was determined using mean peak area ratio of T2/T0 sample. If the mean peak area ratio is within 80%~120%, the test article in the plasma is considered stable for 2 h at room temperature. […] A set of QC samples consists of three concentration levels (low, middle and high). The sample analysis was performed concurrently with a set of calibration standards and two sets of QC samples using the LC-MS/MS method.\nPlasma concentration vs. time data from individual animals was analysed by WinNonLin non-compartmental model (Phoenix WinNonlin 6.2.1, Pharsight, Mountain View, CA). Pharmacokinetic parameter C 0, T ½, CL, Vdss, C max, T max, AUC0-last, AUC0-inf, %F, MRT0-last, MRT0-inf and graphs of plasma concentration vs. time profile were derived."}, "[2]": {"system": "bioluminescent MSSA Xen-29", "assay": "Bioluminescence IP infection in vivo model (neutropenic mice)", "design": "species or system Staphylococcus aureus", "conditions": "SC: 200 mg kg^−1 vancomycin, 50 mg kg^−1 daptomycin, 25 mg kg^−1 19 or 24", "description": "Performed at the University of Queensland, following similar previous literature procedures. Xen-29 (Caliper LifeSciences), a methicillin-sensitive S. aureus (MSSA) strain which contains a copy of the modified luxABCDE operon of Photorhabdus luminescens was taken from the storage at −80 °C and freshly seeded on agar plates for overnight growth at 37 °C. From the overnight culture preparation, a single colony (tested for bioluminescence) was diluted into 10 mL of MHB and incubated overnight at 37 °C. A mid log-phase subculture was obtained by adding 100 μL of overnight subculture in 10 mL MHB and incubated for a further 2–3 h. Finally, the OD600 value of the bacterial suspension was determined and the colony forming units per millilitre (CFU mL^−1) was extrapolated. The suspension was then diluted out accordingly in order to achieve a 2.5 × 10^8 CFU mL^−1 solution (2.5 × 10^7 CFU in 100 μL). […] Mice were monitored for signs of normal behaviour (i.e. grooming, eating, drinking, sleeping and alertness) during and following dosing. […] Xen-29 colonies were then counted, with the CFU mL^−1 blood calculated. […] Luminescent images were quantified with the IVIS Living Image software where the total flux (number of photons/second) was calculated by a user defined region of interest (ROI) covering the infection sites."}, "[3]": {"conditions": "cited from earlier work; for log decrease: CAMHB with polysorbate-80; for log reduction from initial inoculum: nutrient-depleted media, ref Belley AAC 2009 53, 918"}, "[4]": {"conditions": "male, CD1, plasma, 2 mg/kg IV, read-out: Plasma concentration, Mean IV"}, "[5]": {"conditions": "male, CD1, plasma, 10 mg/kg SC, read-out: Plasma concentration, Mean SC"}, "[6]": {"conditions": "male, CD1, plasma, IV 2 mg kg-1"}, "[7]": {"conditions": "male, CD1, plasma, SC 10 mg kg-1"}}, "note": "Read-outs that look alike come from different tables or passages of the source.", "data": [{"smiles": "CN[C@H](CC(C)C)C(=O)N[C@H]1C(=O)N[C@@H](CC(N)=O)C(=O)N[C@H]2C(=O)N[C@H]3C(=O)N[C@H](C(=O)N[C@H](C(=O)O)c4cc(O)cc(O)c4-c4cc3ccc4O)[C@H](O)c3ccc(c(Cl)c3)Oc3cc2cc(c3O[C@@H]2O[C@H](CO)[C@@H](O)[C@H](O)[C@H]2O[C@H]2C[C@](C)(N)[C@H](O)[C@H](C)O2)Oc2ccc(cc2Cl)[C@H]1O", "note": "[Compound 1, Vancomycin]", "values": [{"measurement": "bioavailability", "setting": "[1]; male, CD1, plasma, subcutaneous, SC 10 mg kg-1 vs IV 2 mg kg-1", "result": 70.5, "unit": "%"}, {"measurement": "concentration at 5 min", "setting": "[1]; male, CD1, plasma, 2 mg/kg IV, 5 min, n=3", "result": 5790, "unit": "ng/mL"}, {"measurement": "concentration at […]", "setting": "[1]; [4]", "result": 3590, "unit": "ng/mL"}, {"measurement": "concentration at 0.5 h", "setting": "[1]; [4]", "result": 1980, "unit": "ng/mL"}, {"measurement": "concentration at 1 h", "setting": "[1]; [4]", "result": 762, "unit": "ng/mL"}, {"measurement": "concentration at 2 h", "setting": "[1]; [4]", "result": 193, "unit": "ng/mL"}, {"measurement": "concentration at 4 h", "setting": "[1]; [4]", "result": 27.5, "unit": "ng/mL"}, {"measurement": "concentration at […]", "setting": "[1]; male, CD1, plasma, 10 mg/kg SC, n=3, read-out: Plasma concentration, Mean SC", "result": 10700, "unit": "ng/mL"}, {"measurement": "concentration at 0.5 h", "setting": "[1]; [5]", "result": 9580, "unit": "ng/mL"}, {"measurement": "concentration at 1 h", "setting": "[1]; [5]", "result": 5200, "unit": "ng/mL"}, {"measurement": "concentration at 2 h", "setting": "[1]; [5]", "result": 1270, "unit": "ng/mL"}, {"measurement": "concentration at 4 h", "setting": "[1]; [5]", "result": 137, "unit": "ng/mL"}, {"measurement": "concentration at 8 h", "setting": "[1]; male, CD1, plasma, 10 mg/kg SC, 8.00 h", "result": 6.17, "unit": "ng/mL"}, {"measurement": "AUC(0-inf)", "setting": "[1]; [6]", "result": 3240, "unit": "ng·h/mL"}, {"measurement": "AUC(0-t)", "setting": "[1]; [6]", "result": 3210, "unit": "ng·h/mL"}, {"measurement": "C0", "setting": "[1]; [6]", "result": 7360, "unit": "ng/mL"}, {"measurement": "clearance", "setting": "[1]; [6]", "result": 10.4, "unit": "mL/min/kg"}, {"measurement": "half-life", "setting": "[1]; [6]", "result": 38.4, "unit": "min"}, {"measurement": "MRT inf", "setting": "[1]; [6]", "result": 37.2, "unit": "min"}, {"measurement": "MRT last", "setting": "[1]; [6]", "result": 35.4, "unit": "min"}, {"measurement": "Vd", "setting": "[1]; male, CD1, plasma, IV 2 mg kg-1, read-out: Vdss", "result": 0.39, "unit": "L/kg"}, {"measurement": "AUC(0-inf)", "setting": "[1]; [7]", "result": 11400, "unit": "ng·h/mL"}, {"measurement": "AUC(0-t)", "setting": "[1]; [7]", "result": 11400, "unit": "ng·h/mL"}, {"measurement": "Cmax", "setting": "[1]; [7]", "result": 10700, "unit": "ng/mL"}, {"measurement": "Tmax", "setting": "[1]; [7]", "result": 15, "unit": "min"}, {"measurement": "half-life", "setting": "[1]; [7]", "result": 48, "unit": "min"}, {"measurement": "MRT inf", "setting": "[1]; [7]", "result": 59.4, "unit": "min"}, {"measurement": "MRT last", "setting": "[1]; [7]", "result": 58.8, "unit": "min"}, {"measurement": "AUC0-inf/AUC0-last", "setting": "[1]; IV 2 mg kg-1", "result": 101, "unit": "%"}, {"measurement": "Tlast", "setting": "[1]; IV 2 mg kg-1", "result": 4, "unit": "h"}, {"measurement": "AUC0-inf/AUC0-last", "setting": "[1]; SC 10 mg kg-1", "result": 100, "unit": "%"}, {"measurement": "Tlast", "setting": "[1]; SC 10 mg kg-1", "result": 8, "unit": "h"}, {"measurement": "Change in bioluminescence signal (total flux) after inoculation", "setting": "[2]", "result": "progressive reduction in the bioluminescence signal"}]}, {"smiles": "CN[C@H](CC(C)C)C(=O)N[C@H]1C(=O)N[C@@H](CC(N)=O)C(=O)N[C@H]2C(=O)N[C@H]3C(=O)N[C@H](C(=O)N[C@H](C(=O)O)c4cc(O)cc(O)c4-c4cc3ccc4O)[C@H](O[C@H]3C[C@](C)(N)[C@@H](O)[C@H](C)O3)c3ccc(c(Cl)c3)Oc3cc2cc(c3O[C@@H]2O[C@H](CO)[C@@H](O)[C@H](O)[C@H]2O[C@H]2C[C@](C)(NCc3ccc(-c4ccc(Cl)cc4)cc3)[C@@H](O)[C@H](C)O2)Oc2ccc(cc2Cl)[C@H]1O", "note": "[Compound 5, Oritavancin, reference compound]", "values": [{"measurement": "log decrease", "setting": "[3]; 4 µg mL-, 1h, ref Belley AAC 2016 60 4342", "result": 4.5, "unit": "log"}, {"measurement": "log decrease", "setting": "[3]; 4 µg mL-, 1h, ref Mckay, J Antimicrob Chemother 2009, 63 1191", "result": 4.5, "unit": "log"}, {"measurement": "log reduction from initial inoculum", "setting": "[3]; 4 µg mL-", "result": 3, "unit": "log"}, {"measurement": "log decrease", "setting": "[3]; 16 µg mL-, 30 min, ref Belley AAC 2016 60 4342", "result": 4.5, "unit": "log"}, {"measurement": "log reduction from initial inoculum", "setting": "[3]; 16 µg mL-, 3h, no polysorbate-80", "result": "approximately 4 log"}]}, {"smiles": "CN[C@H]1C(=O)N[C@@H]2Cc3ccc(cc3)Oc3cc4cc(c3O[C@@H]3O[C@H](C(=O)O)[C@@H](O)[C@H](O)[C@H]3NC(=O)CCCCCCCCC(C)C)Oc3ccc(cc3Cl)[C@@H](O)[C@@H]3NC(=O)[C@H](NC(=O)[C@@H]4NC(=O)[C@@H](NC2=O)c2cc(cc(O)c2Cl)Oc2cc1ccc2O)c1ccc(O)c(c1)-c1c(O[C@H]2O[C@H](CO)[C@@H](O)[C@H](O)[C@@H]2O)cc(O)cc1[C@@H](C(=O)NCCCN(C)C)NC3=O", "note": "[Compound 3, Dalbavancin]", "values": [{"measurement": "log reduction", "setting": "[3]; 32 µg mL-, 24h, ref Belley AAC 2016 60 4342", "result": 3, "unit": "log"}]}, {"smiles": "CCCCCCCCCC(=O)N[C@@H](Cc1c[nH]c2ccccc12)C(=O)N[C@H](CC(N)=O)C(=O)N[C@@H](CC(=O)O)C(=O)N[C@@H]1C(=O)NCC(=O)N[C@@H](CCCN)C(=O)N[C@@H](CC(=O)O)C(=O)N[C@H](C)C(=O)N[C@@H](CC(=O)O)C(=O)NCC(=O)N[C@H](CO)C(=O)N[C@@H]([C@H](C)CC(=O)O)C(=O)N[C@@H](CC(=O)c2ccccc2N)C(=O)O[C@@H]1C", "note": "[Compound 4, Daptomycin]", "values": [{"measurement": "Change in bioluminescence signal (total flux) after inoculation", "setting": "[2]", "result": "progressive reduction in the bioluminescence signal"}]}]}
